Values of other authors in US20110251275A1, “OMEGA-3 FATTY ACIDS FOR REDUCTION OF LP-PLA2 LEVELS” (priority 2006, published 2011).

System: Lp-PLA2
Details: for reduction of Lp-PLA2: Tsimihodimos et al. 2002, patients treated

Structure (SMILES) | reduction of Lp-PLA2 | reduced Lp-PLA2 levels (O'Donoghue et al. 2006) [%]
CC(C)OC(=O)C(C)(C)Oc1ccc(C(=O)c2ccc(Cl)cc2)cc1 [fenofibrate, 2-[4-(4-chlorobenzoyl)phenoxy]-2-methyl-propanoic acid, 1-methylethyl ester] | 22-28% | 
CC(C)c1c(C(=O)Nc2ccccc2)c(-c2ccccc2)c(-c2ccc(F)cc2)n1CC[C@@H](O)C[C@@H](O)CC(=O)O [atorvastatin] | 28-42% | 20
